Our source for the Ki values is patent US10899755B2, “Benzothiazole compounds and uses thereof” (Incyte Corporation, priority 2018, dated 2021).

Structures are written as SMILES. pKi: −log10 of the molar value. Bounds are passed on as bounds.

In experiment [1] the target is HPK1 (Homo sapiens, UniProt Q92918). Kind of experiment: HPK1 Kinase Binding Assay. To be noted: active HPK1 (SignalChem M23-11G), tracer 222, LanthaScreen Eu-Anti GST antibody, one hour incubation at 25° C.
Protocol: (§1) A stock solution of 1 mM test compound was prepared in DMSO. The compound plate was prepared by 3-fold and 11-point serial dilutions. 0.1 μL of the compound in DMSO was transferred from the compound plate to the white 384 well polystyrene plates. The assay buffer contained 50 mM HEPES, pH 7.5, 0.01% Tween-20, 5 mM MgCl2, 0.01% BSA, and 5 mM DTT. 5 μL of 4 nM active HPK1 (SignalChem M23-11G) prepared in the buffer was added to the plate. The enzyme concentration given was based on the given stock concentration reported by the vender. […] After one hour incubation at 25° C., the plates were read on a PHERAstar FS plate reader (BMG Labtech). Ki values were determined.
The target of experiment [2] is HPK1. Kind of experiment: HPK1 Kinase Binding Assay. To be noted: active HPK1 (SignalChem M23-11G), tracer 222, LanthaScreen Eu-Anti GST antibody, one hour incubation at 25° C.
Protocol: as §1

Sequence of HPK1 (Homo sapiens, UniProt Q92918) (Q92918 whole entry, looked up): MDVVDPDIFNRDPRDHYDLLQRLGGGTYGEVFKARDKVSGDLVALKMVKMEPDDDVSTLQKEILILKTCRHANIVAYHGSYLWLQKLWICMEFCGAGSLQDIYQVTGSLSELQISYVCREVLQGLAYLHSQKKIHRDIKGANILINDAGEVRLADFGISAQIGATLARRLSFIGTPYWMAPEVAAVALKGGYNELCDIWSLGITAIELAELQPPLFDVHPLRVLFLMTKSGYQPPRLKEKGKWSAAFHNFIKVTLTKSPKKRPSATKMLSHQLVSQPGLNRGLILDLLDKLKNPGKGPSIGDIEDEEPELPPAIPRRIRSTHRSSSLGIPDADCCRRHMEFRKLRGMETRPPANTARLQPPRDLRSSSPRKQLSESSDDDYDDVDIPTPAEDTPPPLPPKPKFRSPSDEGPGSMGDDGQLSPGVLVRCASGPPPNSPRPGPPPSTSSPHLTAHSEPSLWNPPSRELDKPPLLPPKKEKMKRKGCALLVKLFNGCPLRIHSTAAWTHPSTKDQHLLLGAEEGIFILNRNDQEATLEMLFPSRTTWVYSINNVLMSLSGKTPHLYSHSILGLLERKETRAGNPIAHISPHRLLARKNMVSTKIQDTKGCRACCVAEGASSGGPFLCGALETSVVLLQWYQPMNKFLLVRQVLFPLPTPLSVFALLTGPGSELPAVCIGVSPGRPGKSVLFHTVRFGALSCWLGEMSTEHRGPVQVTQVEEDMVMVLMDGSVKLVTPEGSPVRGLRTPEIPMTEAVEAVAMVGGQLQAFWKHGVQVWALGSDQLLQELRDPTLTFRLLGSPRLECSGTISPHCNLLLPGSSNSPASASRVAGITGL

`Cc1nc2c(N3C[C@@H]4CC[C@H]3CN4)c(NC(=O)c3ccnc(-c4c(F)cccc4F)n3)ccc2s1` [Example 31, N-(4-((1S,4S)-2,5-Diazabicyclo[2.2.2]octan-2-yl)-2-methylbenzo[d]thiazol-5-yl)-2-(2,6-difluorophenyl)pyrimidine-4-carboxamide] gave a pKi at HPK1 [1] of over 7.00. Still for that read-out and setting: next, `COc1cccc(F)c1-c1nccc(C(=O)Nc2ccc3sc(C)nc3c2N2CCC3CCNCC32)n1` (stereo not shown) [Example 28, 2-(2-Fluoro-6-methoxyphenyl)-N-(2-methyl-4-(octahydro-1H-pyrrolo[2,3-c]pyridin-1-yl)benzo[d]thiazol-5-yl)pyrimidine-4-carboxamide]: over 7.00; `[2H]C([2H])([2H])Oc1ccc(C#N)c(F)c1-c1nccc(C(=O)Nc2ccc3sc(C)nc3c2N2C[C@H](N)C[C@H]2CO)n1` [Example 17, N-(4-((2S,4R)-4-Amino-2-(hydroxymethyl)pyrrolidin-1-yl)-2-methylbenzo[d]thiazol-5-yl)-2-(3-cyano-2-fluoro-6-(methoxy-d3)phenyl)pyrimidine-4-carboxamide]: over 7.00.

Regarding `Cc1nc2c(N3CC[C@@H](N)C3)c(NC(=O)c3ccnc(-c4c(F)cccc4C(F)(F)F)n3)ccc2s1` [Example 3, (R)—N-(4-(3-Aminopyrrolidin-1-yl)-2-methylbenzo[d]thiazol-5-yl)-2-(2-fluoro-6-(trifluoromethyl)phenyl)pyrimidine-4-carboxamide], the pKi on HPK1 [2] was over 7.00.
